Data on eleven molecules can be found in patent US20160031839A1, “ARGININE […] INHIBITORS AND USES THEREOF” (EPIZYME, INC., priority 2013, published 2016).

Like-named read-outs stand apart in the source and are kept apart here.

In this experiment the test system is mono-methyl arginine in RKO cells. Briefly: RKO Methylation Assay (In Cell Western). The note with it: Homo sapiens, 72 hours. In kind it is cell-based. The text has this: RKO Methylation Assay RKO adherent cells were purchased from ATCC (American Type Culture Collection), Manassas, Va., USA. DMEM/Glutamax medium, penicillin-streptomycin, heat inactivated fetal bovine serum, 0.05% trypsin and D-PBS were purchased from Life Technologies, Grand Island, N.Y., USA. Odyssey blocking buffer, 800CW goat anti-rabbit IgG (H+L) antibody, and Licor Odyssey infrared scanner were purchased from Licor Biosciences, Lincoln, Nebr., USA. Mono-methyl arginine antibody was purchased from Cell Signaling Technology, Danvers, Mass., USA. Methanol was purchased from VWR, Franklin, Mass., USA. 10% Tween 20 was purchased from KPL, Inc., Gaithersburg, Md., USA. DRAQ5 was purchased from Biostatus Limited, Leicestershire, UK. RKO adherent cells were maintained in growth medium (DMEM/Glutamax medium supplemented with 10% v/v heat inactivated fetal bovine serum and 100 units/mL penicillin-streptomycin) and cultured at 37° C. under 5% CO2. Cell Treatment, in Cell Western (ICW) for Detection of Mono-Methyl Arginine and DNA Content. RKO cells were seeded in assay medium at a concentration of 20,000 cells per mL to a poly-D-lysine coated 384 well culture plate (BD Biosciences 356697) with 50 μL per well. Compound (100 nL) from a 96-well source plate was added directly to 384 well cell plate. Plates were incubated at 37° C., 5% CO2 for 72 hours. After three days of incubation, plates were brought to room temperature outside of the incubator for ten minutes and blotted on paper towels to remove cell media. 50 μL of ice cold 100% methanol was added directly to each well and incubated for 30 min at room temperature. After 30 min, plates were transferred to a Biotek EL406 plate washer and washed 2 times with 100 μL per well of wash buffer (1×PBS). Next 60 μL per well of Odyssey blocking buffer (Odyssey Buffer with 0.1% Tween 20 (v/v)) were added to each plate and incubated 1 hour at room temperature. Blocking buffer was removed and 20 μL per well of primary antibody was added (mono-methyl arginine diluted 1:200 in Odyssey buffer with 0.1% Tween 20 (v/v)) and plates were incubated overnight (16 hours) at 4° C. Plates were washed 5 times with 100 μL per well of wash buffer. Next 20 μL per well of secondary antibody was added (1:200 800CW goat anti-rabbit IgG (H+L) antibody, 1:1000 DRAQ5 (Biostatus limited) in Odyssey buffer with 0.1% Tween 20 (v/v)) and incubated for 1 hour at room temperature. The plates were washed 5 times with 100 μL per well wash buffer then 2 times with 100 μL per well of water. Plates were allowed to dry at room temperature then imaged on the Licor Odyssey machine which measures integrated intensity at 700 nm and 800 nm wavelengths. Both 700 and 800 channels were scanned. […] Each plate included fourteen control wells of DMSO only treatment (minimum activation) as well as fourteen control wells for maximum activation treated with 20 μM of a reference compound. The average of the ratio values for each control type was calculated and used to determine the percent activation for each test well in the plate. Reference compound was serially diluted three-fold in DMSO for a total of nine test concentrations, beginning at 20 μM. Percent activation was determined and EC30 curves were generated using triplicate

The mark [1] stands for this setting: numerical, single experiment or average of multiple experiments, read-out: In Cell Western EC30.
The mark [2] stands for this setting: read-out: In Cell Western EC30 (class).

In general, EC30 refers to the concentration needed for an effect of 30%. For the molecule `CN(CCN)Cc1[nH]cnc1-c1ccc(C#N)cc1` [Compound 10, 4-(5-(((2-aminoethyl)(methyl)amino)methyl)-1H-imidazol-4-yl)benzonitrile], the EC30 under setting [1] was over 20 µM and the EC30 under setting [2] is at least 12 µM.
As for `CN(CCN)Cc1cncn1-c1ccc(C#N)cc1` [Compound 6, 4-(5-(((2-aminoethyl)(methyl)amino)methyl)-1H-imidazol-1-yl)benzonitrile], the EC30 under setting [1] is over 20 µM and the EC30 under setting [2] is at least 12 µM.
As to `CN(CCN)Cc1nsnc1-c1ccc(C#N)cc1` [Compound 7, 4-(4-(((2-aminoethyl)(methyl)amino)methyl)-1,2,5-thiadiazol-3-yl)benzonitrile], the EC30 is over 20 µM under setting [1] and at least 12 µM under setting [2].
The matching figures for `CN(CCN)Cc1oncc1-c1ccc(F)cc1` [Compound 11, N^1-((4-(4-fluorophenyl)isoxazol-5-yl)methyl)-N^1-methylethane-1,2-diamine]: over 20 µM and at least 12 µM.
For `CN(CCN)Cc1ccnn1-c1ccc(Oc2ccccc2)cc1` [Compound 9], the EC30 by setting is: under setting [1], 2.31 µM; under setting [2], at most 3 µM.
The matching figures for `CN(CCN)Cc1cnnn1-c1ccc(C#N)cc1` [Compound 5, 4-(5-(((2-aminoethyl)(methyl)amino)methyl)-1H-1,2,3-triazol-1-yl)benzonitrile]: over 20 µM and at least 12 µM.
In the case of `CN(CCN)Cc1n[nH]nc1-c1ccc(C#N)cc1` [Compound 3, 4-(5-(((2-aminoethyl)(methyl)amino)methyl)-2H-1,2,3-triazol-4-yl)benzonitrile], the EC30 runs as follows: under setting [1], 18.6 µM; under setting [2], at least 12 µM.
The like results for `CN(CCN)Cc1ocnc1-c1ccc(C#N)cc1` [Compound 4, 4-(5-(((2-aminoethyl)(methyl)amino)methyl)oxazol-4-yl)benzonitrile] were, in that order, 1.41 µM and at most 3 µM.
The matching figures for `CN(CCN)Cc1ccnn1-c1ccc(C#N)cc1` [Compound 2, 4-(5-(((2-aminoethyl)(methyl)amino)methyl)-1H-pyrazol-1-yl)benzonitrile]: 15.1 µM and at least 12 µM.
The matching figures for `CC(C)Oc1ccc(-n2nccc2CN(C)CCN)cc1` [Compound 8, N^1-((1-(4-isopropoxyphenyl)-1H-pyrazol-5-yl)methyl)-N^1-methylethane-1,2-diamine]: 1.63 µM and at most 3 µM.
`CN(CCN)Cc1ncoc1-c1ccc(C#N)cc1` [Compound 1, 4-(4-(((2-aminoethyl)(methyl)amino)methyl)oxazol-5-yl)benzonitrile]: the EC30 was 14.2 µM under setting [1] and at least 12 µM under setting [2].
